Experimental findings from ChEMBL document CHEMBL2176906, “Diterpenoids isolated from Sideritis species protect astrocytes against oxidative stress via Nrf2” (J Nat Prod, 2012) are described below.

The experiment deals with U373 MG. The experiment can be described thus: Inhibition of AAPH-induced oxidative stress in human U373MG cells assessed as peroxy radical scavenging activity at 8 uM by ORAC assay. The experiment is classed as functional, cell-based. The conditions noted are these: U-373MG ATCC.

The source made the active and inactive calls. No cut-off for these calls is given here.

Turning to `Cc1c(C)c2c(c(C)c1O)CCC(C)(C(=O)O)O2` (stereo unspecified), the result was Active.
